# Assay results: ChEMBL document CHEMBL4610097, “Daphnane Diterpenoids from Daphne genkwa Inhibit PI3K/Akt/mTOR Signaling and Induce Cell Cycle Arrest and Apoptosis in Human Colon Cancer Cells” (J Nat Prod, 2020)
# Calls of active or inactive are those of the source. The calls are words filed in the database; no cut-off is given here.
# Assays:
# SW-620 [1] = assay: Induction of apoptosis in human SW620 cells assessed as early apoptotic cells at 2.96 uM after 24 hrs by annexin V/propidium iodide staining-based flow cytometric analysis (reference value: 0.36%); assay type: functional
# SW-620 [2] = assay: Induction of apoptosis in human SW620 cells assessed as appearance of apoptotic bodies at 11.84 uM after 24 hrs by acridine orange/propidium iodide staining based microscopic analysis; assay type: functional, cell-based
# SW-620 [3] = assay: Induction of morphological changes in human SW620 cells assessed as appearance of apoptotic bodies at 2.96 to 5.92 uM after 24 hrs by acridine orange/propidium iodide staining based microscopic analysis; assay type: functional, cell-based
# SW-620 [4] = assay: Induction of apoptosis in human SW620 cells assessed as late apoptotic cells at 5.92 uM after 24 hrs by annexin V/propidium iodide staining-based flow cytometric analysis (reference value: 2.40%); assay type: functional
# SW-620 [5] = assay: Induction of apoptosis in human SW620 cells assessed as increase in Bax/Bcl2 ratio at 0.74 to 11.84 uM after 24 hrs by Western blot analysis; assay type: functional, cell-based
# [6] = Inhibition of PI3K/Akt/mTOR signalling pathway in human SW620 cells assessed as reduction in Akt phosphorylation at 0.74 to 11.84 uM after 24 hrs by Western blot analysis; assay type: cell-based; conditions: SW-620
# RKO = assay: Cytotoxicity against human RKO cells after 24 hrs by MTT assay; assay type: functional, cell-based
# SW-620 [7] = assay: Induction of apoptosis in human SW620 cells assessed as viable cells at 0.74 uM after 24 hrs by annexin V/propidium iodide staining-based flow cytometric analysis (reference value: 96.9%); assay type: functional; conditions: SW-620, 24 h, read-out: Activity
# SW-620 [8] = assay: Downregulation of PI3K p85 expression in human SW620 cells at 0.74 to 11.84 uM after 24 hrs by Western blot analysis; assay type: functional, cell-based
# SW-620 [9] = assay: Induction of apoptosis in human SW620 cells assessed as late apoptotic cells at 0.74 uM after 24 hrs by annexin V/propidium iodide staining-based flow cytometric analysis (reference value: 2.40%); assay type: functional
# [10] = Inhibition of PI3K/Akt/mTOR signalling pathway in human SW620 cells assessed as reduction in mTOR phosphorylation at 0.74 to 11.84 uM after 24 hrs by Western blot analysis; assay type: cell-based; conditions: SW-620
# SW-620 [11] = assay: Induction of cell cycle arrest in human SW620 cells assessed as accumulation at G2/M phase at 1.48 uM after 24 hrs by propidium iodide staining-based flow cytometric analysis (reference value: 20.06%); assay type: functional
# SW-620 [12] = assay: Induction of cell cycle arrest in human SW620 cells assessed as accumulation at G2/M phase at 2.96 uM after 24 hrs by propidium iodide staining-based flow cytometric analysis (reference value: 20.06%); assay type: functional
# SW-620 [13] = assay: Induction of cell cycle arrest in human SW620 cells assessed as accumulation at G0/G1 phase at 2.96 uM after 24 hrs by propidium iodide staining-based flow cytometric analysis (reference value: 56.11%); assay type: functional
# SW-620 [14] = assay: Induction of cell cycle arrest in human SW620 cells assessed as accumulation at G0/G1 phase at 1.48 uM after 24 hrs by propidium iodide staining-based flow cytometric analysis (reference value: 56.11%); assay type: functional
# SW-620 [15] = assay: Effect on AKT expression in human SW620 cells at 0.74 to 11.84 uM after 24 hrs by Western blot analysis; assay type: cell-based; conditions: sw-620, 24 h
# SW-620 [16] = assay: Induction of cell cycle arrest in human SW620 cells assessed as accumulation at G0/G1 phase at 0.74 uM after 24 hrs by propidium iodide staining-based flow cytometric analysis (reference value: 56.11%); assay type: functional
# SW-620 [17] = assay: Induction of apoptosis in human SW620 cells assessed as necrotic cells at 5.92 uM after 24 hrs by annexin V/propidium iodide staining-based flow cytometric analysis (reference value: 0.30%); assay type: functional
# SW-620 [18] = assay: Induction of cell cycle arrest in human SW620 cells assessed as accumulation at S phase at 11.84 uM after 24 hrs by propidium iodide staining-based flow cytometric analysis (reference value: 23.83%); assay type: functional
# SW-620 [19] = assay: Induction of apoptosis in human SW620 cells assessed as necrotic cells at 1.48 uM after 24 hrs by annexin V/propidium iodide staining-based flow cytometric analysis (reference value: 0.30%); assay type: functional
# SW-620 [20] = assay: Induction of apoptosis in human SW620 cells assessed as viable cells at 11.84 uM after 24 hrs by annexin V/propidium iodide staining-based flow cytometric analysis (reference value: 96.9%); assay type: functional; conditions: SW-620, 24 h, read-out: Activity
# SW-620 [21] = assay: Induction of apoptosis in human SW620 cells assessed as increase in cleaved caspase-3 at 0.74 to 11.84 uM after 24 hrs by Western blot analysis; assay type: functional, cell-based
# SW-620 [22] = assay: Induction of apoptosis in human SW620 cells assessed as viable cells at 1.48 uM after 24 hrs by annexin V/propidium iodide staining-based flow cytometric analysis (reference value: 96.9%); assay type: functional; conditions: SW-620, 24 h, read-out: Activity
# SW-620 [23] = assay: Induction of cell cycle arrest in human SW620 cells assessed as accumulation at S phase at 1.48 uM after 24 hrs by propidium iodide staining-based flow cytometric analysis (reference value: 23.83%); assay type: functional
# SW-620 [24] = assay: Induction of cell cycle arrest in human SW620 cells assessed as accumulation at G0/G1 phase at 11.84 uM after 24 hrs by propidium iodide staining-based flow cytometric analysis (reference value: 56.11%); assay type: functional
# SW-620 [25] = assay: Induction of cell cycle arrest in human SW620 cells assessed as accumulation at G2/M phase at 11.84 uM after 24 hrs by propidium iodide staining-based flow cytometric analysis (reference value: 20.06%); assay type: functional
# SW-620 [26] = assay: Induction of apoptosis in human SW620 cells assessed as late apoptotic cells at 2.96 uM after 24 hrs by annexin V/propidium iodide staining-based flow cytometric analysis (reference value: 2.40%); assay type: functional
# SW-620 [27] = assay: Induction of apoptosis in human SW620 cells assessed as increase in cleaved PARP at 0.74 to 11.84 uM after 24 hrs by Western blot analysis; assay type: functional, cell-based
# SW-620 [28] = assay: Induction of apoptosis in human SW620 cells assessed as necrotic cells at 11.84 uM after 24 hrs by annexin V/propidium iodide staining-based flow cytometric analysis (reference value: 0.30%); assay type: functional
# SW-620 [29] = assay: Induction of apoptosis in human SW620 cells assessed as early apoptotic cells at 1.48 uM after 24 hrs by annexin V/propidium iodide staining-based flow cytometric analysis (reference value: 0.36%); assay type: functional
# SW-620 [30] = assay: Cytotoxicity against human SW620 cells after 24 hrs by MTT assay; assay type: functional, cell-based; conditions: SW-620, 24 h
# SW-620 [31] = assay: Induction of apoptosis in human SW620 cells assessed as viable cells at 2.96 uM after 24 hrs by annexin V/propidium iodide staining-based flow cytometric analysis (reference value: 96.9%); assay type: functional; conditions: SW-620, 24 h, read-out: Activity
# SW-620 [32] = assay: Induction of apoptosis in human SW620 cells assessed as viable cells at 5.92 uM after 24 hrs by annexin V/propidium iodide staining-based flow cytometric analysis (reference value: 96.9%); assay type: functional; conditions: SW-620, 24 h, read-out: Activity
# SW-620 [33] = assay: Effect on mTOR expression in human SW620 cells at 0.74 to 11.84 uM after 24 hrs by Western blot analysis; assay type: cell-based; conditions: sw-620, 24 h
# SW-620 [34] = assay: Induction of cell cycle arrest in human SW620 cells assessed as accumulation at G0/G1 phase at 5.92 uM after 24 hrs by propidium iodide staining-based flow cytometric analysis (reference value: 56.11%); assay type: functional
structure (smiles),measurement,setting,value
C=C(C)[C@@]12O[C@@]3(/C=C/C=C/CCCCC)O[C@@H]1[C@@H]1[C@H](O)[C@@](O)(CO)[C@@H](O)[C@]4(O)C(=O)C(C)=C[C@H]4[C@@]1(O3)[C@H](C)[C@H]2OC(=O)c1ccccc1,Activity,SW-620 [1],6.18%
same,Activity,SW-620 [2],Active
same,Activity,SW-620 [3],Active
same,Activity,SW-620 [4],58.5%
same,Activity,SW-620 [5],Active
same,inhibition,[6],Active
same,IC50,RKO,6.5 µM
same,viability at 0.74 µM,SW-620 [7],80.8%
same,Activity,SW-620 [8],Active
same,Activity,SW-620 [9],15.9%
same,inhibition,[10],Active
same,Activity,SW-620 [11],7.08%
same,Activity,SW-620 [12],5.17%
same,Activity,SW-620 [13],82.07%
same,Activity,SW-620 [14],78.73%
same,Activity,SW-620 [15],Non-Toxic
same,Activity,SW-620 [16],76.93%
same,Activity,SW-620 [17],0.25%
same,Activity,SW-620 [18],9.49%
same,Activity,SW-620 [19],0.43%
same,viability at 11.84 µM,SW-620 [20],1.33%
same,Activity,SW-620 [21],Active
same,viability at 1.48 µM,SW-620 [22],45.4%
same,Activity,SW-620 [23],14.19%
same,Activity,SW-620 [24],88.08%
same,Activity,SW-620 [25],2.43%
same,Activity,SW-620 [26],49.4%
same,Activity,SW-620 [27],Active
same,Activity,SW-620 [28],1.64%
same,Activity,SW-620 [29],5.64%
same,IC50,SW-620 [30],3 µM
same,viability at 2.96 µM,SW-620 [31],44.1%
same,viability at 5.92 µM,SW-620 [32],36.6%
same,Activity,SW-620 [33],Non-Toxic
same,Activity,SW-620 [34],84.75%
